Results reported in patent US8003615B2, “Stable vitamin B6 derivative” (Daiichi Fine Chemical Co., Ltd., priority 2003, dated 2011).

Key:
Assay type in all cases: physicochemical
[1] = Thermal stability of aqueous solution kept at 50° C., HPLC; conditions: 0.5% (w/v) aqueous solution, 50° C. for 90 days
Protocol: A 0.5% (w/v) aqueous solution of pyridoxine 3-β-D-glucoside (pH 6.7) in a volume of 0.3 ml was sealed in a 1-ml volume glass ampoule, and kept at 50° C. under light shielding. The sample was warmed for 90 days, and analyzed during the warming by HPLC (analysis conditions were the same as those applied in Test Example 1) to measure a pyridoxine 3-β-D-glucoside content. A solution of pyridoxine hydrochloride of the same concentration (adjusted to pH 6.7) was treated in the same manner, and the results were compared.
Aqueous solutions (0.5% (w/v)) of pyridoxine 3-β-D-glucoside hydrochloride, pyridoxal 3-β-D-glucoside, pyridoxamine 3-β-D-glucoside, pyridoxine 3-β-D-galactoside, pyridoxine hydrochloride, pyridoxal hydrochloride, and pyridoxamine hydrochloride (adjusted to pH 6.3 to 7.2 with HCl or NaOH) were each sealed in a volume of 0.3 ml in a 1-ml volume glass ampoule, […] in the same manner as in Test Example 2.
0.5% (w/v) Aqueous solutions of pyridoxine 3,4′-cyclic sodium phosphate and pyridoxine hydrochloride (adjusted to pH 6.5 to 6.8) were each sealed in a volume of 0.3 ml in a 1-ml volume glass ampoule, and warming at 50° C. and HPLC analysis were performed in the same manner as in Test Example 2.

[2] = Light stability in a lotion
Protocol: Ceramide formulation (0.1 g), 1,3-butylene glycol (2.5 g), dipropylene glycol (2.5 g), and methylparaben (0.01 g) were warmed at 80° C. and stirred until the mixture became transparent. The mixture was cooled to 35° C., then added with 0.1 g of a vitamin B6 derivative (pyridoxine 3-β-D-glucoside, pyridoxine 3-β-D-glucoside hydrochloride, or pyridoxine 3,4-cyclic sodium phosphate: in Test Examples 11 to 16 mentioned below, the “vitamin B6 derivative” means one of these three kinds of substances) or 0.1 g of pyridoxine 3-sodium sulfate, 1.0 g of sorbitol-fermented polysaccharide and 90 ml of purified water with stirring, and the mixture were stirred until the added substances were dissolved. The solution was adjusted to pH 6.4 with 10% aqueous citric acid, and made into a volume of 100 ml with purified water to prepare a lotion. In this preparation, precipitates and the like were not observed. The prepared lotion in a volume of 6 ml was filled in a glass bottle, and exposed to light of a D65 fluorescent lamp at a total illumination of 0, 60,000, 180,000, or 300,000 lux·hr, and then the vitamin B6 derivative was quantified. The same sample was separately stored at 50° C., and after 0 day, 14 days, one month, and two months, the vitamin B6 derivative was quantified by the HPLC method described in Test Example 1.

[3] = Light stability in a shampoo
Protocol: Sodium coconut oil fatty acid methyltaurine (10.0 g), polyoxyethylene alkyl ether sodium sulfate (20.0 g), lauryl dimethylaminoacetate betaine (10.0 g), coconut oil fatty acid diethanolamide (4.0 g), propylene glycol (2.0 g), vitamin B6 derivative (0.1 g), and methyl paraoxybenzoate (0.01 g) were added to purified water (40 ml), and warmed to 70° C. for dissolution. The solution was cooled to a temperature below 35° C., and then adjusted to pH 6.8 with 10% aqueous citric acid, and made into a volume of 100 ml with purified water to prepare a shampoo. In this preparation, precipitates and the like were not observed. The prepared shampoo in a volume of 6 ml was filled in a glass bottle, and exposed to light of a D65 fluorescent lamp at a total illumination of 0, 60,000, 180,000, or 300,000 lux·hr, and then the vitamin B6 derivative was quantified. The same sample was separately stored at 50° C., and after 0 day, 14 days, one month, and two months, the vitamin B6 derivative was quantified by the HPLC method in the same manner as in Test Example 11 mentioned above.

[4] = Light stability in a drinking water
Protocol: Glucose (4.6 g), Aspartame (0.01 g), citric acid (0.1 g), sodium chloride (0.02 g), potassium chloride (0.02 g), magnesium chloride (0.01 g), calcium lactate (0.04 g), vitamin B6 derivative (0.01 g), sodium L-aspartate (0.07 g), sodium L-glutamate (0.02 g), L-arginine (0.02 g), and aromatic (0.1 g) were dissolved in purified water (70 ml), and then made into a volume of 100 ml with purified water to prepare a drinking water. In this preparation, precipitates and the like were not observed. The prepared drinking water in a volume of 6 ml was filled in a glass bottle, and exposed to light of a D65 fluorescent lamp at a total illumination of 0, 60,000, 180,000, or 300,000 lux·hr, and then the vitamin B6 derivative was quantified by the HPLC method in the same manner as in Test Example 1.

[5] = Test for change in formulation: powder mixed with calcium pantothenate; conditions: 40° C. and 75% humidity, one month
Protocol: Calcium pantothenate (1 g) and a vitamin B6 derivative (1 g) was uniformly mixed in a mortar to prepare a sample in the form of a powder for stability test. The sample placed in an opened glass bottle was stored in an oven at 40° C. under 75% humidity. Appearance of the sample was examined by visual inspection after 0 day, 14 days, and one month, and the vitamin B6 derivative and calcium pantothenate were quantified by the HPLC method in the same manner as in Test Example 11 mentioned above, provided that the detection wavelength for calcium pantothenate was 210 nm.

[6] = Test for change in formulation: aqueous solution with calcium pantothenate; conditions: aqueous solution 0.1 g + 0.1 g calcium pantothenate per 100 ml, 40° C., one month
Protocol: Calcium pantothenate (0.1 g) and a vitamin B6 derivative (0.1 g) were dissolved in purified water and made 100 ml to prepare a sample for stability test in the form of a solution. The sample filled in a sealed glass bottle was stored at 40° C. Appearance of the sample was examined by visual inspection after 0 day, 14 days, and one month, and the vitamin B6 derivative and calcium pantothenate were quantified by the HPLC method in the same manner as in Test Example 11 mentioned above, provided that the detection wavelength for calcium pantothenate was 210 nm.

Cc1ncc(CO)c(CO)c1O.Cl [pyridoxine hydrochloride]
coloring of the aqueous solution after the warming [1]: colored in yellow | remained substance in lotion after irradiation ([2]; lotion pH 6.4, D65 fluorescent lamp, 180,000 lux·hr for 3 days): 42% | remained substance in lotion after irradiation ([2]; lotion pH 6.4, D65 fluorescent lamp, 300,000 lux·hr for 5 days): 30% | remained substance in shampoo after irradiation ([3]; shampoo pH 6.8, D65 fluorescent lamp, 180,000 lux·hr for 3 days): 60% | remained substance in shampoo after irradiation ([3]; shampoo pH 6.8, D65 fluorescent lamp, 300,000 lux·hr for 5 days): 58% | remained substance in drinking water after irradiation ([4]; D65 fluorescent lamp, 180,000 lux·hr for 3 days): 68% | remained substance in drinking water after irradiation ([4]; D65 fluorescent lamp, 300,000 lux·hr for 5 days): 56% | remained calcium pantothenate in the formulation with the substance ([5]; powder 1 g + 1 g calcium pantothenate): 81% | appearance of the formulation with calcium pantothenate ([5]; powder, visual inspection): the white appearance became brown, and blocking and deliquescence were observed | remained calcium pantothenate in the formulation with the substance [6]: 83%
